Structures are written as SMILES.

By IC50 is commonly meant the concentration that gives 50% inhibition.

The target in one test is human mOR (Homo sapiens (Human), UniProt P35372). Description: cell-based.
Chain of human mOR (P35372 whole entry): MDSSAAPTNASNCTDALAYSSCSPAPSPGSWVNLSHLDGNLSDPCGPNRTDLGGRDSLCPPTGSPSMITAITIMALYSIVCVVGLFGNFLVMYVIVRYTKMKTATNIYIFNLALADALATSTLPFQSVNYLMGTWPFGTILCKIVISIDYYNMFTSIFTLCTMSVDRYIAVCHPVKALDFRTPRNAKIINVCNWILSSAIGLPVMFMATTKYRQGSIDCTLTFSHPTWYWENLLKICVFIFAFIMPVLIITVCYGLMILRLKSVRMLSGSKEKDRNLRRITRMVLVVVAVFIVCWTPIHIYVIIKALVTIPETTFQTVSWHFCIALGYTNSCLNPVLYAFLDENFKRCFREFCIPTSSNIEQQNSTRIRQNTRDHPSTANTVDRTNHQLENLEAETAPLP
Conditions: not given
`Cc1cc(O)cc(C)c1C[C@@H](CNC(=O)CC(c1cncc(F)c1)C1(C(F)(F)F)CC1)N(C)C` (stereo partly drawn) [Compound 247, N-((S)-2-(dimethylamino)-3-(4-hydroxy-2,6-dimethylphenyl)propyl)-3-(5-fluoropyridin-3-yl)-3-(1-(trifluoromethyl)cyclopropyl)propanamide]: the IC50 was less than 300 nM.

On to `Cc1cc(O)cc(C)c1C[C@@H](CNC(=O)CC(c1ccc(C(F)(F)F)nc1)C1(C(F)(F)F)CC1)N(C)C` (stereo partly drawn) [Compound 249, N-((S)-2-(dimethylamino)-3-(4-hydroxy-2,6-dimethylphenyl)propyl)-3-(1-(trifluoromethyl)cyclopropyl)-3-(6-(trifluoromethyl)pyridin-3-yl)propanamide], for which the IC50 was less than 300 nM.

Regarding `CC[C@H](CC(=O)NC[C@H](Cc1c(C)cc(O)cc1C)N(C)C)c1cnc(C)s1` [Compound 252, (R)-N-((S)-2-(dimethylamino)-3-(4-hydroxy-2,6-dimethylphenyl)propyl)-3-(2-methylthiazol-5-yl)pentanamide], the IC50 is less than 300 nM.

Consider `Cc1ncc([C@@H](CC(=O)NC[C@H](Cc2c(C)cc(O)cc2C)N(C)C)C2CC2)s1` [Compound 253, (S)-3-cyclopropyl-N-((S)-2-(dimethylamino)-3-(4-hydroxy-2,6-dimethylphenyl)propyl)-3-(2-methylthiazol-5-yl)propanamide], for which the IC50 is less than 300 nM.

Take `Cc1ncc(C(CC(=O)NC[C@H](Cc2c(C)cc(O)cc2C)N(C)C)C2CC2)s1` (stereo partly drawn) [Compound 254, (S)-3-cyclopropyl-N-((S)-2-(dimethylamino)-3-(4-hydroxy-2,6-dimethylphenyl)propyl)-3-(2-methylthiazol-5-yl)propanamide]: the IC50 is less than 300 nM.

As for `CN(C)[C@H](CNC(=O)C[C@H](c1cccnc1)C1(C)CC1)Cc1ccc(O)cc1C(F)(F)F` [Compound 256, (S)-N-((S)-2-(dimethylamino)-3-(4-hydroxy-2-(trifluoromethyl)phenyl)propyl)-3-(1-methylcyclopropyl)-3-(pyridin-3-yl)propanamide], the IC50 was less than 300 nM.

Take `CN(C)[C@H](CNC(=O)C[C@H](c1cccnc1)C1(C(F)(F)F)CC1)Cc1ccc(O)c(F)c1Cl` [Compound 257, (R)-N-((S)-3-(2-chloro-3-fluoro-4-hydroxyphenyl)-2-(dimethylamino)propyl)-3-(pyridin-3-yl)-3-(1-(trifluoromethyl)cyclopropyl)propanamide]: the IC50 was less than 300 nM.

Take `CN(C)[C@H](CNC(=O)C[C@H](c1ccncc1)C1CC1)Cc1ccc(O)c(F)c1Cl` [Compound 258, (S)-N-((S)-3-(2-chloro-3-fluoro-4-hydroxyphenyl)-2-(dimethylamino)propyl)-3-cyclopropyl-3-(pyridin-4-yl)propanamide]: the IC50 is less than 300 nM.

As to `COc1ccc(C[C@@H](CNC(=O)C[C@H](c2cccnc2)C2(C(F)(F)F)CC2)N(C)C)c(Cl)c1F` [Compound 259, (R)-N-((S)-3-(2-chloro-3-fluoro-4-methoxyphenyl)-2-(dimethylamino)propyl)-3-(pyridin-3-yl)-3-(1-(trifluoromethyl)cyclopropyl)propanamide], the IC50 was greater than 3000 nM.

For `CN(C)[C@H](CNC(=O)C[C@H](CC1CC1)c1ccncc1)Cc1ccc(O)cc1Cl` [Compound 260, (S)-N-((S)-3-(2-chloro-4-hydroxyphenyl)-2-(dimethylamino)propyl)-4-cyclopropyl-3-(pyridin-4-yl)butanamide], the IC50 is less than 300 nM.

On to `CN(C)[C@H](CNC(=O)C[C@H](c1ccncc1)C1(C(F)(F)F)CC1)Cc1ccc(O)cc1Cl` [Compound 261, (R)-N-((S)-3-(2-chloro-4-hydroxyphenyl)-2-(dimethylamino)propyl)-3-(pyridin-4-yl)-3-(1-(trifluoromethyl)cyclopropyl)propanamide], for which the 50% inhibitory concentration (IC50) is less than 300 nM.

For the compound `CN(C)[C@H](CNC(=O)C[C@H](c1cccnc1)C1(C(F)(F)F)CC1)Cc1ccc(O)cc1Cl` [Compound 262, (R)-N-((S)-3-(2-chloro-4-hydroxyphenyl)-2-(dimethylamino)propyl)-3-(pyridin-3-yl)-3-(1-(trifluoromethyl)cyclopropyl)propanamide], the IC50 was less than 300 nM.

For `Cc1cc(O)ccc1C[C@@H](CNC(=O)C[C@H](c1cncs1)C1CC1)N(C)C` [Compound 264, (S)-3-cyclopropyl-N-((S)-2-(dimethylamino)-3-(4-hydroxy-2-methylphenyl)propyl)-3-(thiazol-5-yl)propanamide], the IC50 was less than 300 nM.

Take `Cc1cc(O)ccc1C[C@@H](CNC(=O)C[C@H](c1ccoc1)C1(C(F)(F)F)CC1)N(C)C` [Compound 265, (R)-N-((S)-2-(dimethylamino)-3-(4-hydroxy-2-methylphenyl)propyl)-3-(furan-3-yl)-3-(1-(trifluoromethyl)cyclopropyl)propanamide]: the 50% inhibitory concentration (IC50) was less than 300 nM.

In the case of `Cc1ccc([C@@H](CC(=O)NC[C@H](Cc2ccc(O)cc2C)N(C)C)C2(C(F)(F)F)CC2)o1` [Compound 266, (S)-N-((S)-2-(dimethylamino)-3-(4-hydroxy-2-methylphenyl)propyl)-3-(5-methylfuran-2-yl)-3-(1-(trifluoromethyl)cyclopropyl) propanamide], the IC50 was less than 300 nM.

Turning to `Cc1cc(O)ccc1C[C@@H](CNC(=O)C[C@H](c1cncs1)C1(C(F)(F)F)CC1)N(C)C` [Compound 268, (S)-N-((S)-2-(dimethylamino)-3-(4-hydroxy-2-methylphenyl)propyl)-3-(thiazol-5-yl)-3-(1-(trifluoromethyl)cyclopropyl)propanamide], the IC50 was less than 300 nM.

`Cc1cc(O)ccc1C[C@@H](CNC(=O)C[C@H](c1cccnc1)C1(C(F)(F)F)CC1)N(C)C` [Compound 269, (R)-N-((S)-2-(dimethylamino)-3-(4-hydroxy-2-methylphenyl)propyl)-3-(pyridin-3-yl)-3-(1-(trifluoromethyl)cyclopropyl)propanamide]: the IC50 is less than 300 nM.

As for `Cc1cc(O)ccc1C[C@@H](CNC(=O)CC(c1ccncc1)C1(C(F)(F)F)CC1)N(C)C` (stereo partly drawn) [Compound 270, N-((S)-2-(dimethylamino)-3-(4-hydroxy-2-methylphenyl)propyl)-3-(pyridin-4-yl)-3-(1-(trifluoromethyl)cyclopropyl)propanamide], the IC50 was less than 300 nM.

As for `Cc1cc(O)ccc1C[C@@H](CNC(=O)CC(c1ncccn1)C1(C(F)(F)F)CC1)N(C)C` (stereo partly drawn) [Compound 271, N-((S)-2-(dimethylamino)-3-(4-hydroxy-2-methylphenyl)propyl)-3-(pyrimidin-2-yl)-3-(1-(trifluoromethyl)cyclopropyl)propanamide], the IC50 was less than 300 nM.

In the case of `Cc1cc(O)ccc1C[C@@H](CNC(=O)CC(c1cccnc1)C1(C(F)(F)F)CC1)N(C)C` (stereo partly drawn) [Compound 272, N-((S)-2-(dimethylamino)-3-(4-hydroxy-2-methylphenyl)propyl)-3-(pyridin-3-yl)-3-(1-(trifluoromethyl)cyclopropyl)propanamide], the IC50 was less than 300 nM.

As for `Cc1cc(O)ccc1C[C@@H](CNC(=O)CC(c1ncc(Cl)cn1)C1(C(F)(F)F)CC1)N(C)C` (stereo partly drawn) [Compound 274, 3-(5-chloropyridmidin-2-yl)-N-((S)-2-(dimethylamino)-3-(4-hydroxy-2-methylphenyl)propyl)-3-(1-(trifluoromethyl)cyclopropyl) propanamide], the IC50 is less than 300 nM.

For the compound `CC(C)[C@H](CC(=O)NC[C@H](Cc1ccc(O)c(Cl)c1)N(C)C)c1cccnc1` [Compound 276, (S)-N-((S)-3-(3-chloro-4-hydroxyphenyl)-2-(dimethylamino)propyl)-4-methyl-3-(pyridin-3-yl)pentanamide], the 50% inhibitory concentration (IC50) was less than 300 nM.

With `CN(C)[C@H](CNC(=O)C[C@H](c1ccncc1)C1CC1)Cc1ccc(O)c(Cl)c1` [Compound 277, (S)-N-((S)-3-(3-chloro-4-hydroxyphenyl)-2-(dimethylamino)propyl)-3-cyclopropyl-3-(pyridin-4-yl)propanamide], the IC50 is less than 300 nM.

Regarding `CN(C)[C@H](CNC(=O)C[C@H](c1ccncc1)C1(C(F)(F)F)CC1)Cc1ccc(O)c(Cl)c1` [Compound 278, (R)-N-((S)-3-(3-chloro-4-hydroxyphenyl)-2-(dimethylamino)propyl)-3-(pyridin-4-yl)-3-(1-(trifluoromethyl)cyclopropyl)propanamide], the IC50 was less than 300 nM.

Turning to `CN(C)[C@H](CNC(=O)C[C@@H](CC1CC1)c1cccnc1)Cc1ccc(O)c(Cl)c1` [Compound 279, (R)-N-((S)-3-(3-chloro-4-hydroxyphenyl)-2-(dimethylamino)propyl)-4-cyclopropyl-3-(pyridin-3-yl)butanamide], the IC50 is less than 300 nM.

As for `CN(C)[C@H](CNC(=O)C[C@H](c1cccnc1)C1CC1)Cc1ccc(O)c(Cl)c1` [Compound 281, (S)-N-((S)-3-(3-chloro-4-hydroxyphenyl)-2-(dimethylamino)propyl)-3-cyclopropyl-3-(pyridin-3-yl)propanamide], the IC50 was less than 300 nM.

`CN(C)[C@H](CNC(=O)C[C@@H](CC1CC1)c1cncnc1)Cc1ccc(O)c(Cl)c1` [Compound 282, (R)-N-((S)-3-(3-chloro-4-hydroxyphenyl)-2-(dimethylamino)propyl)-4-cyclopropyl-3-(pyrimidin-5-yl)butanamide]: the IC50 was less than 300 nM.

As for `Cc1ncc([C@@H](CC(=O)NC[C@H](Cc2ccc(O)c(Cl)c2)N(C)C)C2(C(F)(F)F)CC2)cn1` [Compound 283, (R)-N-((S)-3-(3-chloro-4-hydroxyphenyl)-2-(dimethylamino)propyl)-3-(2-methylpyrimidin-5-yl)-3-(1-(trifluoromethyl)cyclopropyl)propanamide], the IC50 was less than 300 nM.

Staying with this test, now noted: CHO Tag-lite human mOR stable cell line; forskolin 4 μM and DAMGO at EC90; read-out: mOR cAMP Antagonist Assay IC50.
For `Cc1cc(O)cc(C)c1C[C@@H](CNC(=O)C1CC1c1ncccn1)N(C)C` (stereo partly drawn) [Compound 248, N-((S)-2-(dimethylamino)-3-(4-hydroxy-2,6-dimethylphenyl)propyl)-2-(pyrimidin-2-yl)cyclopropane-1-carboxamide], the IC50 was 300 to 3000 nM.

Take `Cc1cc(O)cc(C)c1C[C@@H](CNC(=O)C[C@H](C)c1ccc(Cl)cc1)N(C)C` [Compound 250, (S)-3-(4-chlorophenyl)-N-((S)-2-(dimethylamino)-3-(4-hydroxy-2,6-dimethylphenyl)propyl)butanamide]: the IC50 was in the range of 300 to 3000 nM.

Source of the values: patent US11634396B2 (priority 2021, dated 2023).
